Literature values as cited in patent US12285413B2 (priority 2020, dated 2025).

Key:
[1] = test system: coronavirus
[2] = test system: SARS-CoV; conditions: multiple in vitro systems, including primary human airway epithelial cell cultures
[3] = test system: MERS-CoV; conditions: multiple in vitro systems, including primary human airway epithelial cell cultures
[4] = test system: SARS-CoV; conditions: mouse, prophylactic and early therapeutic administration
[5] = test system: SARS-CoV-2
[6] = target: glucocorticoid receptor (Homo sapiens, UniProt P04150); conditions: relative to cortisol
Sequence of glucocorticoid receptor (P04150 whole entry): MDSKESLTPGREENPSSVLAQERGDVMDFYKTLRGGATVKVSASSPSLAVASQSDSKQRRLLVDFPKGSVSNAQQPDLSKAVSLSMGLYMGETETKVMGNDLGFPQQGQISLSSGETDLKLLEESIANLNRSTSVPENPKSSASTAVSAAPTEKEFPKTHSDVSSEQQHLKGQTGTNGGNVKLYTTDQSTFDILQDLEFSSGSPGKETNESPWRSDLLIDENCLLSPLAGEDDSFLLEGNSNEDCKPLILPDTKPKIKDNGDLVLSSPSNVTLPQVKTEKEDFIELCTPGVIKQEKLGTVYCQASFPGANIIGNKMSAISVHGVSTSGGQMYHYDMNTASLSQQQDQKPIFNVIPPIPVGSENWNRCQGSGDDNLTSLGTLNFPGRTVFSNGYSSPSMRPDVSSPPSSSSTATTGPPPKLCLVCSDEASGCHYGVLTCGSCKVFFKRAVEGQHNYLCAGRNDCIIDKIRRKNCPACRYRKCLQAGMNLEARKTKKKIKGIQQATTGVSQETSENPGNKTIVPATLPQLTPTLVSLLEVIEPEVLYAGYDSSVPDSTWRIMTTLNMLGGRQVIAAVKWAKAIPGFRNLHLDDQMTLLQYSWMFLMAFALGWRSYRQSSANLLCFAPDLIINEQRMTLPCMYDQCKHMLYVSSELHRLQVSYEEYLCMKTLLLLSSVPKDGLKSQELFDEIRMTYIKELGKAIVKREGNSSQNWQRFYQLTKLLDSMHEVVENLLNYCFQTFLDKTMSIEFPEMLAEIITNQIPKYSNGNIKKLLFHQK

## CCN(CCO)CCCC(C)Nc1ccnc2cc(Cl)ccc12 (stereo not shown) [Hydroxychloroquine]
[1]
  effect on coronavirus replication in in-vitro systems: inhibitory effects

## CCC(CC)COC(=O)[C@H](C)N[P@](=O)(OC[C@H]1O[C@@](C#N)(c2ccc3c(N)ncnn23)[C@H](O)[C@@H]1O)Oc1ccccc1 [Remdesivir]
[2]
  EC50, inhibition of SARS-CoV replication: submicromolar
[3]
  EC50, inhibition of MERS-CoV replication: submicromolar
[4]
  lung viral load: reduced lung viral load
  respiratory function: improved respiratory function
[5]
  antiviral activity in SARS-CoV-2 in-vitro models: antiviral activity

## C[C@@H]1C[C@H]2[C@@H]3CCC4=CC(=O)C=C[C@]4(C)[C@@]3(F)[C@@H](O)C[C@]2(C)[C@@]1(O)C(=O)CO [dexamethasone]
[6]
  anti-inflammatory and immunosuppressive potency versus cortisol: approximately 30 times
